From ChEMBL document CHEMBL5584242, “Discovery of pyridazinone derivatives bearing tetrahydroimidazo[1,2-a]pyrazine scaffold as potent inhibitors of transient receptor potential canonical 5 to ameliorate hypertension-induced renal injury in rats” (Eur J Med Chem, 2024) come the findings set out here.

The term half-life denotes the time in which the quantity being followed falls by half. What is called Tmax is the time at which the peak concentration occurs. In general, Cmax refers to the maximum level reached in the sampled fluid or tissue.

The nature of series [1]: in vitro. The following applies: rat, liver microsomes.
Series [2] in a line: in vitro. The following applies: mouse, liver microsomes. In general terms: Microsomes from liver hold many membrane-bound enzymes, among them those of drug oxidation.
Series [3] is described as follows: in vitro. The following applies: human, liver microsomes.
For series [4] the following is noted: human, microsomes.
Series [5] is described as follows: in vitro. The settings on record: rat, liver microsomes, F.
Series [6] can be described thus: in vitro. The following applies: mouse, liver microsomes, F.
For series [7] the following is noted: rat, microsomes.
The nature of series [8]: in vitro. The settings on record: human, liver microsomes, F.
For series [9] the following is noted: mouse, microsomes.
For series [10] the following is noted: rat, microsomes. This is another data set of the same source.
The conditions of series [11]: human, microsomes. This is another data set of the same source.
For series [12] the following is noted: mouse, microsomes. The source holds these as a separate data set.
The nature of series [13]: Drug distribution in ICR mouse lung at 10 mg/kg, po measured after 1 hr by LC-MS/MS analysis. The following applies: in vivo. In kind it is ADME, organism-based.
A short description of series [14]: Drug distribution in ICR mouse spleen at 10 mg/kg, po measured after 1 hr by LC-MS/MS analysis. In kind it is ADME, organism-based. The settings on record: in vivo.
The nature of series [15]: Drug distribution in ICR mouse liver at 10 mg/kg, po measured after 1 hr by LC-MS/MS analysis. The format is ADME, organism-based. The settings on record: in vivo.
A short description of series [16]: Tmax in ICR mouse at 10 mg/kg, po measured upto 24 hrs by LC-MS/MS analysis. In kind it is ADME, organism-based. The settings on record: in vivo.
A short description of series [17]: Half-life in ICR mouse at 10 mg/kg, po measured upto 24 hrs by LC-MS/MS analysis. The format is ADME, organism-based. The following applies: in vivo.
A short description of series [18]: Drug distribution in ICR mouse heart at 10 mg/kg, po measured after 1 hr by LC-MS/MS analysis. The format is ADME, organism-based. The following applies: in vivo.
A short description of series [19]: Cmax in ICR mouse at 10 mg/kg, po measured upto 24 hrs by LC-MS/MS analysis. In kind it is ADME, organism-based. The following applies: in vivo.
Series [20] can be described thus: Drug distribution in ICR mouse brain at 10 mg/kg, po measured after 1 hr by LC-MS/MS analysis. In kind it is ADME, organism-based. The settings on record: in vivo.
The nature of series [21]: Drug distribution in ICR mouse kidney at 10 mg/kg, po measured after 1 hr by LC-MS/MS analysis. The format is ADME, organism-based. The settings on record: in vivo.
Series [22] in a line: Drug distribution in ICR mouse colon at 10 mg/kg, po measured after 1 hr by LC-MS/MS analysis. The settings on record: in vivo. The format is ADME, organism-based.

As for `COC(c1ccc(F)cc1C(F)(F)F)c1cnc2n1CCN(c1cn[nH]c(=O)c1Cl)C2` (centres undefined), the half-life in the series “in vitro [1]” turned out to be 34.7 min; in the series “in vitro [2]”, 38.7 min; in “in vitro [3]” it was 41.5 min. Further, the CLH was 50.6 mL/min/g in [4], 60.5 mL/min/g in series [7] and 54.2 mL/min/g in [9]. The values for the Fh in “in vitro [5]”, in “in vitro [6]” and in “in vitro [8]” were 42.3%, 45% and 27.9%, respectively.

Take `COC(c1ccc(F)cc1Cl)c1cnc2n1CCN(c1cn[nH]c(=O)c1Cl)C2` (stereo in doubt; 12-2): the figures for the CLH in series [4], in series [7] and in series [9] were 17.5 mL/min/g, 142 mL/min/g and 41.8 mL/min/g, respectively. For the same compound, the figures for the t1/2 in [10], in series [11] and in [12] were 14.8 min, 120 min and 50.3 min, respectively.

Turning to `COC(c1ccc(F)cc1Cl)c1cnc2n1CCN(c1cn[nH]c(=O)c1Cl)C2` (stereo in doubt; 12), the Drug uptake result was “Active” in [13]; “Active” in [14]; “Active” in [15]; “Active” in series [18]; “Not Active” in series [20]; “Active” in series [21]. The Drug uptake result in [22] was “Active”. In addition, in [16], the time of peak concentration (Tmax) amounted to 1 h. Also, the half-life in series [17] was 118 min; in “in vitro [1]” (t1/2), 21.6 min; in the series “in vitro [2]” (t1/2) it was 46.7 min; in “in vitro [3]” (t1/2) it was 119 min. The compound further had a maximum concentration (Cmax) in series [19] of 1150 ng/mL. Besides, the CLH in series [4] turned out to be 17.7 mL/min/g; in series [7], 97.3 mL/min/g; in series [9] it was 45 mL/min/g. The figures for the Fh in “in vitro [5]”, in the series “in vitro [6]” and in the series “in vitro [8]” were 31.4%, 49.7% and 52.5%, respectively.
